Tests used:
resistant parasites = settings: Farm 4 from Anderson et al, 1991; cited from earlier work
adult liver fluke = settings: oral, Coles & Stafford 2001; cited from earlier work
[1] = system: albendazole resistant Trichostrongylus axei; assay: Trial 1: repeated oral dosing of albendazole in lambs, worm count (abomasa)
[2] = system: resistant Trichostrongylus axei; assay: Trial 3: oral albendazole vs prototype albendazole bolus in adult ewes, worm count (abomasa); settings: oral 5.0 mg/kg once
[3] = system: albendazole resistant Cooperia spp.; assay: Trial 1: repeated oral dosing of albendazole in lambs, worm count (small intestine)
resistant Cooperia spp. = assay: Trial 3: oral albendazole vs prototype albendazole bolus in adult ewes, worm count (small intestine); settings: oral 5.0 mg/kg once
[4] = system: resistant Ostertagia circumcincta; assay: Trial 3: oral albendazole vs prototype albendazole bolus in adult ewes, worm count (abomasa); settings: oral 5.0 mg/kg once
immature flukes = settings: in vivo; cited from earlier work
[5] = system: albendazole resistant Ostertagia Circumcincta; assay: Trial 1: repeated oral dosing of albendazole in lambs, worm count (abomasa)
[6] = system: albendazole resistant Nematodirus spp.; assay: Trial 1: repeated oral dosing of albendazole in lambs, worm count (small intestine)
[7] = system: resistant Haemonchus Contortus; assay: Trial 3: oral albendazole vs prototype albendazole bolus in adult ewes, worm count (abomasa); settings: oral 5.0 mg/kg once
[8] = system: abamectin-resistant Ostertagia circumcincta; assay: Trial 2: repeated oral dosing of abamectin in lambs, worm count; type: in vivo
[9] = system: multiple drug resistant Trichostrongylus colubriformis; assay: Magnum combination bolus trial in sheep, efficacy based on worm counts; type: in vivo; settings: single standard oral doses
Experimental: (§1) This concept has again been tested for the present invention by constructing and testing for efficacy a Magnum bolus releasing 2 actives simultaneously. A prototype sheep bolus designed to release 5 mg/kg of albendazole and 0.18 mg/kg abamectin in a 50 kg sheep was tested against two species of multiple drench resistant parasites. Trial lambs ranged in weight from 48-55.5 kg.

[10] = system: multiple drug resistant Ostertagia circumcincta; assay: as above; type: in vivo; settings: single standard oral doses
Experimental: as §1

[11] = system: abamectin-resistant Cooperia spp.; assay: Trial 2: repeated oral dosing of abamectin in lambs, worm count; type: in vivo
[12] = system: abamectin-resistant Trichostrongylus colubriformis; assay: as above; type: in vivo
parasites of goats = settings: Pomroy et al, 1992; cited from earlier work

CCCSc1ccc2nc(NC(=O)OC)[nH]c2c1 [Alb, albendazole]
Efficacy (resistant parasites): 73% | level of efficacy against adult liver fluke (adult liver fluke): variable and less than desirable | % reduction in worm count Trichostrongylus axei ([1]; 1.75 mg/kg for 7 days): 87.5% | % reduction in worm count Trichostrongylus axei ([1]; 2.5 mg/kg for 7 days): 90.2% | % reduction in worm count Trichostrongylus axei ([1]; 3.75 mg/kg for 7 days): 96.8% | % reduction in worm count Trichostrongylus axei ([1]; 5 mg/kg for 7 days): 97.6% | % reduction in worm count Trichostrongylus axei ([1]; 5 mg/kg once): 82.9% | % reduction in worm count Trichostrongylus axei [2]: 91.8% | % reduction in worm count Cooperia spp. ([3]; 1.75 mg/kg for 7 days): 57.1% | % reduction in worm count Cooperia spp. ([3]; 2.5 mg/kg for 7 days): 67.5% | % reduction in worm count Cooperia spp. ([3]; 3.75 mg/kg for 7 days): 83.3% | % reduction in worm count Cooperia spp. ([3]; 5 mg/kg for 7 days): 86.9% | % reduction in worm count Cooperia spp. ([3]; 5 mg/kg once): 36.9% | % reduction in worm count Cooperia spp. (resistant Cooperia spp.): 59.3% | % reduction in worm count Ostertagia circumcincta [4]: 59.3% | efficacy against immature flukes (immature flukes): ineffective | % reduction in worm count Ostertagia circumcincta ([5]; 1.75 mg/kg for 7 days): 74.9% | % reduction in worm count Ostertagia circumcincta ([5]; 2.5 mg/kg for 7 days): 57.0% | % reduction in worm count Ostertagia circumcincta ([5]; 3.75 mg/kg for 7 days): 70.9% | % reduction in worm count Ostertagia circumcincta ([5]; 5 mg/kg for 7 days): 92.3% | % reduction in worm count Ostertagia circumcincta ([5]; 5 mg/kg once): 42.7% | % reduction in worm count Nematodirus spp. ([6]; 1.75 mg/kg for 7 days): 58.9% | % reduction in worm count Nematodirus spp. ([6]; 2.5 mg/kg for 7 days): 69.0% | % reduction in worm count Nematodirus spp. ([6]; 3.75 mg/kg for 7 days): 88.1% | % reduction in worm count Nematodirus spp. ([6]; 5 mg/kg for 7 days): 73.9% | % reduction in worm count Nematodirus spp. ([6]; 5 mg/kg once): 71.2% | % reduction in worm count Haemonchus Contortus [7]: 91.4%

c1ccc([C@H]2CN3CCSC3=N2)cc1 [Levamisole]
Efficacy (resistant parasites): 88%

CO/N=C1\C[C@]2(C[C@@H]3C[C@@H](C/C=C(\C)C[C@@H](C)/C=C/C=C4\CO[C@@H]5[C@H](O)C(C)=C[C@@H](C(=O)O3)[C@]45O)O2)O[C@H](/C(C)=C/C(C)C)[C@H]1C [Moxidectin]
% reduction in worm count Ostertagia circumcincta ([8]; 0.2 mg/kg once): 76.3% | Efficacy based on worm counts Trichostrongylus colubriformis [9]: 90.6 | Efficacy based on worm counts Ostertagia circumcincta [10]: 59.9 | % reduction in worm count Cooperia spp. ([11]; 0.2 mg/kg once): 99.1% | % reduction in worm count Trichostrongylus colubriformis ([12]; 0.2 mg/kg once): 72.5%

COC(=O)Nc1nc2ccc([S+]([O-])c3ccccc3)cc2[nH]1 (centres unmarked) [oxfendazole]
Efficacy (parasites of goats): 82%

abamectin
% reduction in worm count Ostertagia circumcincta ([8]; 0.07 mg/kg for 7 days): 77.2% | % reduction in worm count Ostertagia circumcincta ([8]; 0.113 mg/kg for 7 days): 89.3% | % reduction in worm count Ostertagia circumcincta ([8]; 0.18 mg/kg for 7 days): 96.4% | % reduction in worm count Ostertagia circumcincta ([8]; 0.2 mg/kg once): 45.0% | % reduction in worm count Cooperia spp. ([11]; 0.07 mg/kg for 7 days): 99.1% | % reduction in worm count Cooperia spp. ([11]; 0.113 mg/kg for 7 days): 99.6% | % reduction in worm count Cooperia spp. ([11]; 0.18 mg/kg for 7 days): 100.0% | % reduction in worm count Cooperia spp. ([11]; 0.2 mg/kg once): 94.9% | % reduction in worm count Trichostrongylus colubriformis ([12]; 0.07 mg/kg for 7 days): 47.3% | % reduction in worm count Trichostrongylus colubriformis ([12]; 0.113 mg/kg for 7 days): 55.3% | % reduction in worm count Trichostrongylus colubriformis ([12]; 0.18 mg/kg for 7 days): 77.1% | % reduction in worm count Trichostrongylus colubriformis ([12]; 0.2 mg/kg once): 60.7%

ivermectin
Efficacy (parasites of goats): 27%
